In patent US20230092846A1, “COMBINATION FOR THE TREATMENT OF CANCER AND APPLICATION THEREOF” (EVERFRONT BIOTECH INC., priority 2020, published 2023):
≈ marks a conversion by molar mass, not a printed value. Like-named read-outs stand apart in the source and are kept apart here.

Key:
HepG2 cell = assay: MTT cell viability analysis, single agents, HepG2; assay type: cell-based; details: cultured 24, 48 and 72 hours (time of IC50 not given)
Description: (§1) In this example, the effects of the compound of the present invention and different anticancer medicaments on killing cancer cells were studied by MTT (Thiazolyl Blue tetrazolium bromide, 3-[4,5-dimethylthiahiazo-2-yl]-[…] bromide) cell viability analysis.
(§2) Thereafter, each of the aforesaid cell lines were cultured with cell medium containing 5-fluorouracil, (Z)-n-butylidenephthalide, and 2-pentanolybenzoic acid for 24 hours, 48 hours and 72 hours.

DBTRG-05MG cell = assay: MTT cell viability analysis, single agents, DBTRG-05MG; assay type: cell-based; details: cultured 24, 48 and 72 hours (time of IC50 not given)
Description: as §1, §2

A549 cell = assay: MTT cell viability analysis, single agents, A549; assay type: cell-based; details: cultured 24, 48 and 72 hours (time of IC50 not given)
Description: as §1, §2

PANC-1 cells = assay: MTT cell viability analysis, single agents, PANC-1; assay type: cell-based, human
Description: as §1
(§3) Thereafter, each of the aforesaid cell lines was cultured with cell medium containing gemcitabine, cisplatin, 5-fluorouracil, irinotecan, oxaliplatin, paclitaxel, (Z)-n-butylidenephthalide, (E)-n-butylidenephthalide, 2-pentanolybenzoic acid, sodium 2-pentanoylbenzoate, and butylphthalide, for 24 hours, 48 hours and 72 hours, respectively.

Panc02 cells = assay: MTT cell viability analysis, single agents, Panc02; assay type: cell-based, mouse
Description: as §1, §3

AsPC-1 cells = assay: MTT cell viability analysis, single agents, AsPC-1; assay type: cell-based, human
Description: as §1, §3

Mia-PaCa2 cells = assay: MTT cell viability analysis, single agents, Mia-PaCa2; assay type: cell-based, human
Description: as §1, §3

HT-29 cell = assay: MTT cell viability analysis, single agents, HT-29; assay type: cell-based; details: cultured 24, 48 and 72 hours (time of IC50 not given)
Description: as §1, §2

[1] = test system: Panc02 cells pancreatic tumor; assay: Survival of mice with orthotopic Panc02 pancreatic cancer; assay type: in vivo, C57BL/6J mouse; details: for Fold (as compared to Ctl. group): survival
Description: According to the requirements of Institutional Animal Care and Use Committee (IACUC) of Dong Hwa University, C57BL/6J mice were feed in the experimental animal center of Dong Hwa University until 8 to 10 weeks old. Then, the stably constructed Panc02 cells transfected by Luc-eGFP were in-situ injected into the mice pancreases (1×10^6 cells/0.02 ml/mouse). Thereafter, the tumor sizes of mice pancreases were analyzed through the animal imaging results, and the mice were equally divided into nine group depending on their tumor sizes and treated by the following conditions for three to four weeks:
(1) “Control (Ctl.)” group (5 mice): untreated, only orally administering vehicle (containing none of the compound of the present invention and other anticancer medicaments) every day.
(2) “LD” group (5 mice): orally administering a low dose (12.5 mg/kg body weight) of (Z)-n-butylidenephthalide every day.
(3) “HD” group (5 mice): orally administering a high dose (25 mg/kg body weight) of (Z)-n-butylidenephthalide every day.
(4) “Gem” group (5 mice): intraperitoneally injecting 100 mg/kg body weight of gemcitabine (GEM) per three days.
(5) “LD+Gem” group (5 mice): orally administering 12.5 mg/kg body weight of (Z)-n-butylidenephthalide every day, and intraperitoneally injecting 50 mg/kg body weight of gemcitabine (GEM) per three days.
(6) “TS-1” group (5 mice): after orally administering 100 mg/kg body weight of TS-1 every day for five continuous days, stopping the oral administration of TS-1 for two days.
According to the method of Example 4-1, the pancreatic cancer mice were established and the survivals of mice in each group were observed and recorded every day. The results are shown in Table 15 and FIG. 5A to FIG. 5D.

PD-L1 protein = assay: Western Blotting of treated Panc02 cells, PD-L1; assay type: cell-based, mouse; details: 37.5 and 75 μg/ml, 3 and 6 hours, FIG. 1
Description: (§4) The Panc02 cells (pancreatic cancer cell line) were cultured with 37.5 and 75 μg/ml of (Z)-n-butylidenephthalide for 6 hours (a portion of cells were harvested after culturing for 3 hours), respectively. Thereafter, proteins of the cells were extracted, and the expressions of CD44 intracellular domain (CD44ICD) protein and PD-L1 protein in the cancer cells treated with (Z)-n-butylidenephthalide were measured by Western Blotting. Furthermore, the expression of GAPDH protein was measured as an internal control.

CD44ICD protein = assay: Western Blotting of treated Panc02 cells, CD44ICD; assay type: cell-based, mouse; details: FIG. 1
Description: as §4

[2] = MTT, cultured 24, 48 and 72 hours (time of IC50 not given)
[3] = AsPC-1, MTT, cultured 24, 48 and 72 hours (time of IC50 not given)
[4] = Mia-PaCa2, MTT, cultured 24, 48 and 72 hours (time of IC50 not given)
[5] = HD group: 25 mg/kg orally every day
[6] = LD group: 12.5 mg/kg orally every day

Row | Compound | IC50 (PANC-1 cells; [2]) [µg/mL] | IC50 (AsPC-1 cells; [3]) [µg/mL] | IC50 (Mia-PaCa2 cells; [4]) [µg/mL] | IC50 (HepG2 cell; Homo sapiens, read-out: IC50) [µg/mL] | IC50 (DBTRG-05MG cell; Homo sapiens, read-out: IC50) [µg/mL] | IC50 (A549 cell; Homo sapiens, read-out: IC50) [µg/mL] | IC50 (HT-29 cell; Homo sapiens, read-out: IC50) [µg/mL] | IC50 (PANC-1 cells; Homo sapiens) [µg/mL] | IC50 (Panc02 cells; Mus musculus) [µg/mL] | IC50 (AsPC-1 cells; Homo sapiens, ASPC1) [µg/mL] | IC50 (Mia-PaCa2 cells; Homo sapiens, MIA PaCa-2) [µg/mL] | further results
1 | 2-pentanolybenzoic acid | 980.5 ± 22.64 | 490.2 ± 19.69 | 693.5 ± 19.57 | – | – | – | – | – | – | – | – | IC50 (HepG2 cell): 1141.5 ± 0.01 µg/mL; IC50 (DBTRG-05MG cell): 392.8 ± 0.01 µg/mL; IC50 (A549 cell): 795.5 ± 0.02 µg/mL; IC50 (Panc02 cells; [2]): 769.9 ± 15.13 µg/mL; IC50 (HT-29 cell): 443.8 ± 0.04 µg/mL
2 | O=c1[nH]cc(F)c(=O)[nH]1 [5-fluorouracil, reference compound] | – | – | – | 4.44 ± 0.25 (≈ 34.1 µM) | 55.5 ± 6.1 (≈ 426 µM) | 8.55 ± 0.22 (≈ 65.7 µM) | 20.8 ± 0.91 (≈ 160 µM) | – | – | – | – | IC50 (PANC-1 cells; Homo sapiens, MTT, cultured 24, 48 and 72 hours (time of IC50 not given), read-out: IC50): 8.45 ± 0.35 µg/mL (≈ 65 µM); IC50 (Panc02 cells; Mus musculus, MTT, cultured 24, 48 and 72 hours (time of IC50 not given), read-out: IC50): 0.0673 µg/mL (≈ 0.517 µM); IC50 (AsPC-1 cells; Homo sapiens, ASPC1, AsPC-1, MTT, cultured 24, 48 and 72 hours (time of IC50 not given), read-out: IC50): 25.4 ± 3.91 µg/mL (≈ 195 µM); IC50 (Mia-PaCa2 cells; Homo sapiens, MIA PaCa-2, Mia-PaCa2, MTT, cultured 24, 48 and 72 hours (time of IC50 not given), read-out: IC50): 4.9 ± 0.27 µg/mL (≈ 37.7 µM)
3 | CCC/C=C1/OC(=O)c2ccccc21 [(E)-n-butylidenephthalide] | – | – | – | – | – | – | – | 779 ± 26.9 (≈ 4140 µM) | 514 ± 9.21 (≈ 2730 µM) | 131 ± 43.3 (≈ 697 µM) | 629 ± 16.5 (≈ 3340 µM) | –
4 | CCC/C=C1\OC(=O)c2ccccc21 [(Z)-n-butylidenephthalide] | – | – | – | 81.1 ± 0.02 (≈ 431 µM) | 133 (≈ 704 µM) | 63.6 ± 0.06 (≈ 338 µM) | 52.9 ± 0.01 (≈ 281 µM) | 41.2 ± 2.81 (≈ 219 µM) | 32.9 ± 2.33 (≈ 175 µM) | 83.3 ± 2.56 (≈ 443 µM) | 55.9 ± 1.35 (≈ 297 µM) | Average of overall survival [1, 5]: 27.2 ± 0.533 days; Median of overall survival [1, 5]: 27 days; Average of overall survival [1, 6]: 30.6 ± 2.205 days; Median of overall survival [1, 6]: 30 days; survival days compared to Control group and TS-1 group [1, 6]: more than that of “Control” group; Fold (as compared to Ctl. group) [1, 5]: 1.6; Fold (as compared to Ctl. group) [1, 6]: 1.8; expression of PD-L1 protein (PD-L1 protein): decreased as the concentration of (Z)-n-butylidenephthalide was increased; expression of CD44ICD protein (CD44ICD protein; 37.5 and 75 μg/ml, 3 and 6 hours): decreased as the concentration of (Z)-n-butylidenephthalide was increased; expression of CD44ICD protein at 6 hours (CD44ICD protein; 6 hours): completely inhibited
5 | CCCCC1OC(=O)c2ccccc21 (centres unmarked) [butylphthalide, Butylphthalide] | >200 | >300 | 198.9 ± 7.69 (≈ 1050 µM) | – | – | – | – | – | – | – | – | –
